From patent publication US20240148701A1, “WOULD HEALING METHODS” (The University of Sydney, priority 2021, published 2024)
Entries after “also recorded” stand apart in the source; their conditions may differ.

Key:
[1] = system: human adult dermal microvascular endothelial cells (MVEC); assay: Tubule formation in human adult dermal microvascular endothelial cells; type: cell-based; details: β3AR antagonist 1 μmol/L with CL 316,243 100 ng/ml
Experimental: (§1) Human umbilical vein endothelial cells (HUVECs; Lonza C2519AS, pooled source, Australia) were grown using standard cell culture conditions in endothelial cell growth medium (EGM Plus®, containing 2% fetal bovine serum, Lonza, Australia). All cells were regularly confirmed to be mycoplasma negative. Two different pooled source cell lines were used in experiments and all were used within passages 2-4. Human adult dermal microvascular endothelial cells were also obtained from Lonza (CC-2543, Lonza Australia) and cultured as above but using endothelial growth medium 2-MV bulletkit. Endothelial colony forming cells (ECFCs) were derived from the peripheral blood of participants in the BioHEART study. This registered study (ACTRN12618001322224) complies with the Declaration of Helsinki and the study protocol and design has been approved by the Northern Sydney Local Health District Human Research Ethics Committee (HREC/17/HAWKE/343). […]
(§2) Once they were ˜70% confluent, cells were re-suspended in diluted EGM Plus® (1:3) and plated on reduced-growth factor extracellular matrix (15 mg/ml, Cultrex, Trevigen, USA) at a density of 1.5×10^4 cells/cm^2. […] Cells were incubated in an EVOS FL Auto Imaging system for 16 hours and tubule formation recorded every hour. Optimal tube formation occurred at the 8-hour timepoint; tubule number at this point was quantified manually using NIH Image J software. […]

β3-AR = β3-AR (Homo sapiens, UniProt P13945); details: cited from earlier work; for agonist activity at β3-AR: β1- and β2-AR antagonists; for affinity and potency at β3-AR: selective agonists
diabetic HMVECs = assay: Scratch migration assay in diabetic HMVECs with Mirabegron; type: cell-based, human; details: 85 nM, 4.5 hours, vs control
Experimental: (§3) For assessing the effect of Mirabegron on cell migration: Human umbilical vein endothelial cells (HUVECs; Lonza, C2519AS) were cultured in Endothelial Cell Growth Media containing 2% fetal bovine serum (EGM2) (Lonza, CC-3162) at standard conditions of 37° C. and 5% C02 (SC). Human dermal microvascular diabetic and non-diabetic endothelial cells (db-HMVECs and HMVECs: Lonza, CC2930 and CC2543 respectively) were cultured in Microvascular Endothelial Growth Media containing 2% fetal bovine serum (FBS) (EGM-2MV) (Lonza, CC-3202) at ST. Cells were between passage 4 and 7 when used.
To investigate the potential for Mirabegron to improve migration by reversing oxidative stress, diabetic and non-diabetic HMVECs were used in a scratch migration assay. 85 nM of Mirabegron was used with a control on both cell types.

[2] = Topical lipogel on explanted skin, DESI-Mass spec detection; type: in vitro ADME, mouse; details: lipogel applied to freshly explanted skin for 5.5 hrs
Excerpt: A lipogel comprising the β3AR agonist Mirabegron was applied to freshly explanted skin for 5.5 hrs. Skin was then snap frozen in liquid nitrogen and cryosectioned at 40 μum thickness.
DESI-Mass spec was then used to scan the tissue at 30 μm resolution. Tissue image was constructed using mass signal 284 which was presented in high quantity throughout the tissue. Mirabegron was detected using mass signal 397 and overlayed onto the tissue image. The same slide used for DESI-Mass spec was subsequently stained with H&E.

HUVECs [3] = assay: Scratch migration assay in HUVECs with Mirabegron; type: cell-based, human; details: 0.85-850 nM, over 15 hours, between concentrations
Experimental: as §3
To first investigate whether the role that β3AR activation plays in endothelial cell migration was dose dependant, the inventors measured migration of HUVECs in media with multiple concentrations of Mirabegron (0.85, 8.5, 85 & 850 nM) using a scratch migration assay.

C57BL6 mice = assay: Splinted wound healing model in STZ-diabetic male mice; type: in vivo, mouse
Experimental: 8-week-old C57BL6 mice were purchased from Animal Resources Centre (Murdoch, WA) and acclimatised to the Kearns Facility over a 1-week period. Mice were group housed (5/cage) within a Physical Containment Level 2 laboratory and were allowed food and water ad libitum. After acclimatisation, 60 mice were weighed daily and given five consecutive daily intraperitoneal injections of Streptozotocin (STZ) solution (55 mg/kg/day) dissolved in sodium citrate (0.1 M) using a standard insulin needle (30 gauge). After the final injection, mice were weighed and blood glucose level (BGL) measured weekly by pricking the most distal point on the tail with a needle to obtain a blood drop, used with an AccuCheck BGL monitor. Mice became become diabetic over 4 weeks post-STZ, as confirmed with a consistent BGL of 15 mmol/L and if greater than 10% weight loss was observed, insulin was delivered via intraperitoneal injection (1 IU in saline). 4 mice were excluded due to severe weight loss during diabetes induction that exceeded ethical protocols. […] Wounds were measured daily for 12 days by removing opsite covering and using digital callipers to measure wound diameter across 3 axes which were averaged and used to calculate circular wound area. […] As such, wound data from 2 mice in topical group were not recorded following day 8 due to splint detachment. […]

HUVECs [4] = assay: Cell migration by scratch assay in HUVECs (CL 316,243); type: cell-based, human; details: L-NAME 300 μmol/L with CL 316,243
HUVECs [5] = assay: Tubule formation in HUVECs on reduced growth factor extracellular matrix; type: cell-based, human; details: L-NAME 300 μmol/L with CL 316,243
Experimental: as §1, §2

β3-AR, sequence (P13945 whole entry): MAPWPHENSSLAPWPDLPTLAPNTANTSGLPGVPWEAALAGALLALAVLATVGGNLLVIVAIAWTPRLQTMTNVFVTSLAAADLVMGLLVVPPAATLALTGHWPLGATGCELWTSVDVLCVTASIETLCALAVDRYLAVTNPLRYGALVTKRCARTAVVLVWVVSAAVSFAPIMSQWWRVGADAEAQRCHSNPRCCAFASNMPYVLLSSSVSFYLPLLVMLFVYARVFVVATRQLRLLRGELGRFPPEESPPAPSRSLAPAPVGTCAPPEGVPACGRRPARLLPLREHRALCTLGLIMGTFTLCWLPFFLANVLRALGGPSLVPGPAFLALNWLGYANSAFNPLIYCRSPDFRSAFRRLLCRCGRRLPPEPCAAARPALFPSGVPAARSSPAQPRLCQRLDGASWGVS

## CCc1ccccc1OC[C@@H](O)CN[C@H]1CCCc2ccccc21.O=C(O)C(=O)O [SR 592230A]
[1]
  effect on CL 316,243-induced tubule formation: abolished

## CC(C)(Cc1c[nH]c2ccccc12)NCC(O)COc1ccccc1C#N (stereo not shown) [bucindolol]
β3-AR
  agonist activity at β3-AR: partial agonist activity

## CC(C)(C)NCC(O)COc1cccc2[nH]c(=O)[nH]c12 (stereo not shown) [CGP12177A]
β3-AR
  agonist activity at β3-AR: partial agonist activity

## CC(C)NCC(O)COc1cccc2[nH]ccc12 (stereo not shown) [pindolol]
β3-AR
  agonist activity at β3-AR: partial agonist activity

## Cc1cc(OCC(=O)O)c(C)cc1CCN[C@@H](C)[C@H](O)c1ccc(O)cc1 [ritobegron]
β3-AR
  affinity and potency at β3-AR: high affinity and potency

## O=C(O)c1cccc(-c2cccc(NCCNC[C@H](O)c3cccc(Cl)c3)c2)c1 [solabegron]
β3-AR
  affinity and potency at β3-AR: high affinity and potency

## Nc1nc(CC(=O)Nc2ccc(CCNC[C@H](O)c3ccccc3)cc2)cs1 [Mirabegron, 2-(2-Amino-1,3-thiazol-4-yl)-N-[4-(2-{[(2R)-2-hydroxy-2-phenylethyl]amino}ethyl)phenyl]acetamide]
Diabetic HMVECs
  migration of diabetic HMVECs: improved the migration; also recorded: seemed to improve the migration; also recorded: improves migration
[2]
  absorption into skin tissue (DESI-Mass spec signal 397): detected in the tissue; also recorded: deliver through to the dermis
HUVECs [3]
  migration of HUVECs: No significant difference; also recorded: no impact
C57BL6 mice; topical lipogel daily, 12 days, vs vehicle lipogel, p=0.009
  wound healing (wound closure over time): Significant improvement
C57BL6 mice; topical, day 2, n=14, p=0.0238
  wound healing at day 2: significant improvement
β3-AR
  affinity and potency at β3-AR: high affinity and potency

## COC(=O)[C@@H](N)CCCNC(=N)N[N+](=O)[O-] [L-NAME, Nω-nitro-L-arginine methyl ester]
HUVECs [4]
  effect on β3AR-stimulated cell migration rate in HUVECs: abolished
HUVECs [5]
  effect on β3AR-stimulated tubule formation in HUVECs: abolished

## O=C(Nc1ccc(C[C@@H]2CC[C@H]([C@H](O)c3ccccc3)N2)cc1)[C@@H]1CCc2nccc(=O)n21 [vibegron]
β3-AR
  affinity and potency at β3-AR: high affinity and potency

## CC(C)(C)NCC(O)COc1cccc2c1CC(O)C(O)C2 (stereo not shown) [nadolol]
β3-AR; β-AR antagonists
  affinity at β3-AR: atypically low affinity
